Here are results for 3 compounds from US12186283B2, “Bismuth-thiol compositions and methods of use” (Microbion Corporation, priority 2018, dated 2025).

For data set [1], the system named is M. abscessus / MABSC biofilms. The class given is cell-based, Mycobacterium abscessus complex. Conditions: AMT0130-8, MABSC CF-isolate.
Data set [2] relates to beta-hemolytic streptococci (S. pyogenes, S. agalactiae). The data set can be described thus: Broth microdilution MIC (Example 11). Type of data set: cell-based, Streptococcus pyogenes, Streptococcus agalactiae.
A further data set has as its system S. aureus ATCC 29213. Conditions: control strain ATCC 29213 S. aureus; per CLSI M100-S24 or provided by Microbion; cited from earlier work.
In data set [3] the test system is Pseudomonas aeruginosa strain PA01. In words: Bacterial killing curves with and without 10% CF patient sputum. Conditions: for bactericidal activity: PA01, 0.1 μg/mL; for effect of CF patient sputum on bactericidal activity: PA01, 10% CF patient sputum.
Data set [4] deals with MUCILAIR™ fully differentiated human airway epithelium. The data set can be described thus: Acute toxicity on […] fully differentiated human airway epithelium (LDH, TEER, morphology). Type of data set: cell-based. The protocol:
Controlled in vitro evaluation of BisEDT, with respect to potential cytotoxicity on fully differentiated human airway epithelium was carried out. Both solubilized and solid (powder/particulate) forms of BisEDT were evaluated for cytotoxicity by Epithelix, a contract research organization (CRO) specializing in this form of cytotoxicity evaluation utilizing a proprietary, in vitro fully differentiated human airway epithelium test system ([…]™). The […]™ system facilitated evaluation of cytotoxicity through both LDH release (from the culture medium side) and trans-epithelial electrical resistance (TEER) from the apical/air-exposed side as well as pre- and post-exposure microscopic examination for morphological changes (FIG. 13).
The assay system used in this study is Epithelix's proprietary technology sold under the trademark […]™ […]™ is a fully differentiated and ready-to-use 3D model of human airway epithelium, constituted with primary human epithelial cells freshly isolated from nasal, tracheal or bronchial biopsies. […]™ (FIG. 24), is not only morphologically and functionally differentiated, but can also be maintained in a homeostatic state for a long period of time (Huang et al., 2009).
[…]™ is composed of basal cells, ciliated cells and mucus cells. The proportion of these various cell types is preserved compared to what one observes in vivo (Huang et al., 2011). Moreover the epithelia are started from de-differentiated cells. The cells undergo a progressive differentiation with time. After 45 days of culture, the epithelia are fully ciliated, secret mucus and are electrically tight (TEER>200 (2 Ω·cm^2). The activity of the main epithelial ionic channels, such as CFTR, EnaC, Na/K ATPase, is preserved and the epithelia is shown to respond in a regulated and vectorial manner to the pro-inflammatory stimulus, TNF-α (Huang et al., 2011). A large panel of cytokines, chemokines and metalloproteinases has been detected in […]™ (e.g. IL-8, IL-6, GM-CSF, MMP-9, GRO-α).
BisEDT (MB-1-B3) was applied on the apical surface of […]™ during 1, 8, 24 and 48 hours (FIG. 13). The effect of 6 concentrations was studied: 0.001, 0.01, 0.1, 1, 10 and 30 uM. […] 30 μl solution at the selected concentration was applied on the apical surface of […]™. The negative control corresponds to the vehicle solution (0 μM) and untreated cultures. The positive control corresponds to 50 μl to 10% Triton X-100 diluted in a buffered saline solution. The study was run in triplicates.
During the study, inserts were maintained in a CO2 incubator (37° C., 5% CO2, 100% humidity). The following end-points were determined: • Tissue integrity monitoring: Trans-Epithelial Electrical Resistance (TEER) measurement (quantitative) at D0, D1 and D2. • Cytotoxicity monitoring: LDH test (quantitative) at D0, D1 and D2. • Morphology: cellular and tissue integrity examined under contrast microscope at DO, D1 and D2.
Compound BisEDT was applied on the apical surface of […]™. The effect of 5 concentrations after 1, 8, 24 and 48 hours exposure was studied: 0.033, 0.33, 3.33, 33.3, 333 μg/cm^2. The compound was diluted in Dextran powder at the targeted concentration and compressed in order to obtain a tablet. The study was run in triplicates. During the study, inserts were maintained in a CO2 incubator (37° C., 5% CO2, 100% humidity).
Compound BisEDT was applied on the apical surface of […]™. The effect of 1 μg/cm^2 concentrations after 1, 8, 24 and 48 hours exposure was studied. The compound was diluted in Dextran powder at the targeted concentration and compressed in order to obtain a tablet. The study was run in triplicates. During the study, inserts were maintained in a CO2 incubator (37° C., 5% CO2, 100% humidity).

Another data set concerns P. aeruginosa. As to conditions: P. aeruginosa isolate 103, CLSI QC range in parenthesis, cited from earlier work.
A further data set has as its system Escherichia coli. Conditions: cited from earlier work.
A further data set has as its system Pseudomonas aeruginosa. Conditions: P. aeruginosa ATCC 27853, QC organism; cited from earlier work.
Data set [5] has as its system Burkholderia cepacia complex. In words: Broth microdilution MIC (Example 10). As to conditions: initial MIC testing.
[6] abbreviates: BisEDT as solid, 1 μg/cm^2, 1 hour exposure.
Setting [7] is: BisEDT as solid, 0.033 and 0.33 μg/cm^2, all tested time points.
Setting [8] is: BisEDT in solution 0.001-30 μM apical, 1, 8, 24 and 48 hours.
The mark [9] stands for this setting: E. coli ATCC 25922, QC organism.

Values after ≈ are worked out from the molar mass of the structure shown. Read-outs that look alike come from different tables or passages of the source.

For the compound `CC(S)C(C)S.[Bi]` (stereo not shown) [BisBDT, bismuth-2,3-butanedithiol], the “reduction in biofilm cell viability” value in data set [1] is “only very modest reductions in biofilm cell viability”. Moreover, the MIC (as a rule, the least concentration at which growth counts as inhibited) in data set [2] (S. agalactiae MMX 3741, ERY^R CC^R) amounted to 0.25 µg/mL; in data set [2] (S. agalactiae MMX 3743, ERY^R CC^R) it was 0.25 µg/mL; in [2] (S. agalactiae MMX 4077, ERY^R CC^R), 0.25 µg/mL; in data set [2] (S. agalactiae MMX 4086, ERY^R CC^R), 0.25 µg/mL. For the same compound, the “MIC values (range across isolates)” value in [2] (macrolide-resistant S. pyogenes, clindamycin-resistant S. agalactiae) lay in the range of 0.03 to 2 µg/mL. Also, the “Expected MIC: goal” value in the data set with S. aureus ATCC 29213 was 0.25 µg/mL. In addition, in data set [3], the bactericidal activity entry was “not bactericidal”. For the same compound, the “more surviving in cultures with sputum” value in [3] (PA01, 4 μg/mL, 10% CF sputum, 3-6 hours) was 0.5-0.8 log CFU/mL. Further, in [3] (PA01, 4 μg/mL, absence of sputum, 6 hour assay), the “killing over the assay” value is given as “about 1 log”. For the same compound, the “time to sterilization below the limit of detection” value in data set [3] (PA01, 20 μg/mL, with and without sputum) was at most 5 h. The “effect of CF patient sputum on bactericidal activity” value in [3] is “partially inhibited”.
In the case of `C1C[S][Bi]([S]CC[S][Bi]2[S]CC[S]2)[S]1` [BisEDT, bismuth-1,2-ethanedithiol], the morphology after exposure entry in data set [4] (BisEDT as solid in dextran tablet, 3.33 μg/cm^2, 24 and 48 h) was “Cells were rounded and opaque at the periphery of inserts”; in [4] (BisEDT as solid in dextran tablet, 0.033 and 0.33 μg/cm^2), “No morphological modifications were observed”; in data set [4] (BisEDT as solid in dextran tablet, 33.3 and 333 μg/cm^2, 8, 24 and 48h), “Cells were rounded and opaque on the inserts”; in data set [4] (BisEDT as solid, 1 μg/cm^2, 1 hour and 8 hour exposure), “no important morphological changes were observed”; in data set [4] (BisEDT as solid, 1 μg/cm^2, 24h exposure), “the epithelial cells on 2 inserts out of 3 were dead”; in [4] (BisEDT as solid, 1 μg/cm^2, 48 h exposure) it was “the epithelial cells on all 3 inserts were dead”. Also, the morphology after exposure entry in [4] (setting [8]) is on record as “No morphology changes were observed”. For the same compound, the “tissue integrity (TEER)” value was “Loss of tissue integrity is observed” in data set [4] (BisEDT as solid, 1 μg/cm^2, 8, 24 and 48H exposure); “no significant effect on TEER was observed” in [4] (setting [6]); “No significant effect was observed on TEER” in data set [4] (setting [7]); “Loss of tissue integrity is observed” in data set [4] (BisEDT as solid, 3.33, 33.3 and 333 μg/cm^2, 8, 24 and 48H exposure); “no significant effect on TEER is observed” in [4] (BisEDT as solid, all tested doses (0.033-333 μg/cm^2), 1 hour exposure); “didn't show significant effect on TEER” in [4] (setting [8]). The “cytotoxicity (LDH release)” value in [4] (BisEDT as solid, 1 μg/cm^2, 8, 24 and 48h) was “time- and dose-dependent cytotoxicity is observed”; in data set [4] (setting [6]), “No significant effect on LDH release”; in data set [4] (setting [7]) it was “No significant effect on LDH release”; in data set [4] (BisEDT as solid, 3.3, 33.3 and 333 μg/cm^2), “time and dose dependent, cytotoxicity is observed”. Further, the “cytotoxicity (LDH increase, TEER reduction)” value in data set [4] (BisEDT as solid, 1 and 3.33 μg/cm^2, 24 h and 48h exposure) is given as “induces cytotoxicity”. Moreover, the “toxicity (LDH, TEER, morphology)” value in data set [4] (BisEDT as solid, 33.3, 333 μg/cm^2) is on record as “strong toxicity was observed”. The “local toxicity on the airway epithelium (morphology, TEER, LDH)” value in data set [4] (BisEDT in liquid solution 0.001-30 μM, 1, 8, 24 and 48 hours) was “showed no local toxicity”. In addition, the “percentage of cytotoxicity (LDH release)” value in [4] (setting [8]) is “LDH release was not altered”. In data set [4] (solubilized BisEDT, all time points up to 48 hours (=20.83 μg/mL)), the “highest tested concentration, no toxic effects observed” value turned out to be 30 µM. Also, in the data set with S. aureus ATCC 29213, the “Expected MIC: goal” value was 0.25 to 0.5 µg/mL. The “MIC, CLSI QC range” value in the data set on P. aeruginosa (Table 24) is reported as “(0.5-4)^2 μg/mL”; in the data set with P. aeruginosa (Table 26), “(0.5-4) μg/mL”. Moreover, the “MIC, QC range” value with Escherichia coli (setting [9]) is reported as “(0.5-4)^1 μg/mL”; in the data set with Pseudomonas aeruginosa it was “(0.5-4) μg/mL”. For the same compound, the bactericidal activity result in data set [3] is listed as “not bactericidal”. In addition, the “effect of CF patient sputum on bactericidal activity” value in data set [3] is given as “partially inhibited”.
`C[C@@H](O)[C@H]1C(=O)N2C(C(=O)O)=C(S[C@@H]3CN[C@H](C(=O)N(C)C)C3)[C@H](C)[C@H]12` [MEM]: the “MIC, CLSI QC range” value in the data set on P. aeruginosa (Table 24) and with P. aeruginosa (Table 26) was “(0.12-1) μg/mL” each time. In addition, the “MIC, QC range” value is “(0.008-0.06) μg/mL” with Escherichia coli (setting [9]); “(0.008-0.06) μg/mL” in the data set with Escherichia coli (E. coli ATCC 35218, QC organism); “(0.12-1) μg/mL” in the data set with Pseudomonas aeruginosa. For the same compound, the MIC in data set [5] (B. cenocepacia isolate 0548 (CIP-R)) was found to be 4 µg/mL (≈ 10.4 µM); in data set [5] (B. cenocepacia isolate 0813 (CPI-I)), 2 µg/mL (≈ 5.22 µM); in data set [5] (B. cenocepacia isolate 1631), 4 µg/mL (≈ 10.4 µM); in data set [5] (B. cenocepacia isolate 1783), 4 µg/mL (≈ 10.4 µM); in [5] (B. cenocepacia isolate 8555) it was 4 µg/mL (≈ 10.4 µM); in data set [5] (B. cepacia isolate 0546), 4 µg/mL (≈ 10.4 µM). The MIC is 2 µg/mL (≈ 5.22 µM) in data set [5] (B. cepacia isolate 0547); 4 µg/mL (≈ 10.4 µM) in [5] (B. cepacia isolate 1793); 4 µg/mL (≈ 10.4 µM) in [5] (B. cepacia isolate 1794); 4 µg/mL (≈ 10.4 µM) in data set [5] (B. cepacia isolate 9040); 2 µg/mL (≈ 5.22 µM) in data set [5] (B. multivorans isolate 1580 (CIP-R)); 4 µg/mL (≈ 10.4 µM) in data set [5] (B. multivorans isolate 1791). Further, the MIC stood at 8 µg/mL (≈ 20.9 µM) in data set [5] (B. multivorans isolate 1795 (MEM-I, CIP-R)); 2 µg/mL (≈ 5.22 µM) in data set [5] (B. multivorans isolate 5665 (CIP-I)); 2 µg/mL (≈ 5.22 µM) in data set [5] (B. multivorans isolate 8952 (CIP-I)).
